Here are results for 2 molecules from publication PMC2717050, “Evaluation of expression and function of the H^+/myo-inositol transporter HMIT” (BMC Cell Biology, 2009).

The target in test [1] is T1, HMIT triple mutant (H+/myo-inositol transporter) (Rattus norvegicus, UniProt Q921A2).
T1 construct: gene Slc2a13; stop codon deleted, C-terminal V5-His; pcDNA3.1/V5-His-TOPO; transient in HEK293/HEK293T cells
T1 sequence (Q921A2 1-637): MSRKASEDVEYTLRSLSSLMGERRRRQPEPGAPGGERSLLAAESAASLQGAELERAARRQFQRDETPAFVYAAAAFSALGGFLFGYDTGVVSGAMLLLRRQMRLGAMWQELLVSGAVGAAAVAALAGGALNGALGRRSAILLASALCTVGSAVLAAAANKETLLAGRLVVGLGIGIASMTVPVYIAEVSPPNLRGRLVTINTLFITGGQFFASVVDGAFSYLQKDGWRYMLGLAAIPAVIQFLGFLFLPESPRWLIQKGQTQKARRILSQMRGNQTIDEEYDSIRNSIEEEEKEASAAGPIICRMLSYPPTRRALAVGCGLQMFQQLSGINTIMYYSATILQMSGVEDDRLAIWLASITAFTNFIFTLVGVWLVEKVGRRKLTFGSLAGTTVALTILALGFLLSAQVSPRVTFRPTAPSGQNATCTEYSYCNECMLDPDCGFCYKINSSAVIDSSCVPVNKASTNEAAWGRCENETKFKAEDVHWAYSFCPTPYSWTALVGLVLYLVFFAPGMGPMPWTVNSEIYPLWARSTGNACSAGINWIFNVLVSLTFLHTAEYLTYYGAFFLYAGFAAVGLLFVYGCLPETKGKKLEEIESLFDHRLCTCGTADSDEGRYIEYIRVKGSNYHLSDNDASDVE
The test can be described thus: whole-cell patch-clamp, inositol-evoked inward current. The format is cell-based. As to conditions: extracellular pH 5.2; room temperature; Hill slope 1.0; transiently transfected HEK293/HEK293T cells.

Test [2] has as its target T1, HMIT triple mutant (H+/myo-inositol transporter). The test can be described thus: [3H]-myo-inositol uptake in HEK293T cells. The format is cell-based. The settings on record: pH 6.0; 37 °C pre-incubation 10 min; 2 min uptake; non-selective inhibitor.

In test [1], `O[C@H]1[C@H](O)[C@@H](O)[C@H](O)[C@@H](O)[C@H]1O` [myo-inositol] displayed an EC50 of 2700 µM.

With `O=C(CCc1ccc(O)cc1)c1c(O)cc(O)cc1O[C@@H]1O[C@H](CO)[C@@H](O)[C@H](O)[C@H]1O` [phloridzin], the “% inhibition at 1 mM” value in test [2] stood at 53 ± 1.4%.
